Consider 19 compounds from patent US5985900A, “Metalloproteinase inhibitors, pharmaceutical compositions containing them and their pharmaceutical uses” (Agouron Pharmaceuticals, Inc., priority 1998, dated 1999).

Holding throughout (assay type): biochemical
Assay [1] concerns the target T1, human collagenase-3 (Coll3) (Homo sapiens, UniProt P45452).
T1 construct: catalytic domain liberated with APMA
Kind of assay: In vitro MMP inhibition assay (hydrolysis of fluorogenic MCA peptide substrate), collagenase-3. The note with it: Table 1; Ki,app; MCA peptide substrate 10 μM, 37° C., pH 7.5, 2% DMSO. As to the method:
The propeptide and catalytic domain of human collagenase-3 (Coll3) was expressed in E. coli as an N-terminal fusion protein with ubiquitin. After purification of the fusion from inclusion bodies, the catalytic domain was liberated by treatment with 2 mM APMA at room temperature overnight. Final purification was completed using copper chelate chromatography.
(§1) Assays were performed in assay buffer (50 mM Tricine pH 7.5, 200 mM sodium chloride, 10 mM calcium chloride, 0.5 mM zinc acetate containing 2% dimethyl sulfoxide (DMSO)) once the substrate and inhibitor were diluted into it. Stock solutions of inhibitors were prepared in 100% DMSO. Stock solutions of the substrate were prepared in 100% DMSO at a concentration of 6 mM.
(§2) The assay method was based on the hydrolysis of MCA-Pro-Leu-Gly-Leu-DPA-Ala-Arg-NH2 (American Peptide Co.) at 37° C. (see Knight, C. G. et al., FEBS, 1992, 296, 263-266). The fluorescence changes were monitored with a Perkin-Elmer LS-50B fluorimeter using an excitation wavelength of 328 nm and an emission wavelength of 393 nm. The substrate concentration used in the assays was 10 μM. The inhibitor was diluted into the assays from a solution in 100% DMSO, and controls substituted an equal volume of DMSO so that the final DMSO concentration from inhibitor and substrate dilution in all assays was 2%. […] Proper determination of steady-state rates of substrate cleavage required assay lengths of 60 minutes to allow for complete equilibration of the enzyme-inhibitor complex.
(§3) The Km for the MCA peptide substrate with the matrix metalloproteinases is quite high and exceeds its solubility under assay conditions. Consequently, the apparent Ki (Ki,app) was determined to describe the strength of inhibition. However, in this case, Ki,app would be essentially equal to Ki since [S]<<Km. For the determination of Ki,app, the concentration of the inhibitor was varied at a constant and low concentration of substrate and the steady-state rates of fluorescence change determined. In most cases absorptive quench due to the presence of ligand was not observed. For slow-binding inhibitors, onset of inhibition curves were collected for at least 45 minutes so that equilibrium was established. Steady-state rates of fluorescence change were obtained by fitting a curve to an equation for a single exponential decay containing a linear phase. The fitted value of the linear phase was taken as the steady-state rate. The steady-state rates were fitted to the Michaelis equation describing competitive inhibition by non-linear methods. Data resulting from tight-binding inhibition was analyzed, and Ki,app determined by fitting the data to the tight-binding equation of Morrison (Biochem. Biophys. Acta, vol. 185, pp. 269-286 (1969)) by non-linear methods.
(§4) All Ki values are in nM units.

Another assay addresses human stromelysin (Sln) (Homo sapiens, UniProt P08254). Kind of assay: In vitro MMP inhibition assay (hydrolysis of fluorogenic MCA peptide substrate), stromelysin. Particulars: Table 1; Ki,app; MCA peptide substrate 10 μM, 37° C., pH 7.5, 2% DMSO; read-out: Sin Ki. As to the method: The catalytic domain of human stromelysin (Sln) was obtained by expression and purification of a C-terminally truncated prostromelysin-1 from E. coli host BL21 (see Marcy et al. Biochem., 1991, 30, 6476). The subsequent activation of the mature form (Sln) was completed with 2 mM APMA for 1 hour at 37° C., followed by separation using a sizing column.
as §1, §2, §3, §4

Assay [2] deals with T2, human collagenase-1 (HFC) (Homo sapiens, UniProt P03956).
T2 sequence (P03956 100-269 limits assumed): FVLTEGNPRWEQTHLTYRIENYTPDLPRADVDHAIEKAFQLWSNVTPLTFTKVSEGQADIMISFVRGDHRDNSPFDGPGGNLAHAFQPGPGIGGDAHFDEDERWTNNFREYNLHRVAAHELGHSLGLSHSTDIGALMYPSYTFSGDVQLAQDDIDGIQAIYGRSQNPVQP
Kind of assay: In vitro MMP inhibition assay (hydrolysis of fluorogenic MCA peptide substrate), fibroblast collagenase-1. Particulars: Table 1; Ki,app; MCA peptide substrate 10 μM, 37° C., pH 7.5, 2% DMSO. The procedure:
The catalytic domain of human collagenase-1 was expressed as a fusion protein with ubiquitin in E. coli (see Gehring, E. R., J Biol. Chem., 1995, 270, 22507). After purification of the fusion protein, the fibroblast collagenase-1 catalytic domain (HFC) was released either by treatment with purified, active stromelysin-1 (1:50 wlw ratio), which generated nearly 100% N-terminal Phe1, or by autoprocessing the concentrated collagenase-1 fusion and then incubating at 37° C. for 1 hour. Final purification was completed using zinc chelate chromatography.
as §1, §2, §3, §4

The target of assay [3] is human progelatinase A (GelA) (Homo sapiens, UniProt P08253). Kind of assay: In vitro MMP inhibition assay (hydrolysis of fluorogenic MCA peptide substrate), gelatinase A. Particulars: Table 1; Ki,app; MCA peptide substrate 10 μM, 37° C., pH 7.5, 2% DMSO; read-out: Gel A. The procedure:
The catalytic and fibronectin-like portion of human progelatinase A (GelA) was expressed as a fusion protein with ubiquitin in E. Coli. Assays were carried out on autocatalytically activated material.
as §1, §2, §3, §4

The structures appear in SMILES notation.

Sequence of human stromelysin (Sln) (P08254 100-272 limits assumed): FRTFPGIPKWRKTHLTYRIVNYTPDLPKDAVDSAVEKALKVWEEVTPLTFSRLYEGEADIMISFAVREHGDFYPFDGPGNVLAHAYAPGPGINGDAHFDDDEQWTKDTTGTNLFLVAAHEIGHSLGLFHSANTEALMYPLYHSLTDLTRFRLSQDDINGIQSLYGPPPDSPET
Sequence of human progelatinase A (GelA) (P08253 110-446 limits assumed): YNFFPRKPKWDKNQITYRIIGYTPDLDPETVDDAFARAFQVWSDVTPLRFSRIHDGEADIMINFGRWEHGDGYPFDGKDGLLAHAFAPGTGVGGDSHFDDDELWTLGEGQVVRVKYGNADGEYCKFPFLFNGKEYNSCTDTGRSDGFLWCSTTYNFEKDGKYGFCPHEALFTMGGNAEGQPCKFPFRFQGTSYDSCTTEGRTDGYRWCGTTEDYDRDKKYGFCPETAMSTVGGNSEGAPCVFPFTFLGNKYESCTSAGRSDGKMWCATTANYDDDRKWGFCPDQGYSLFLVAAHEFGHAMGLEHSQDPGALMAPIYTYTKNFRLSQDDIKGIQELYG

On to `CC(C)(SCc1ccccn1)[C@@H](NS(=O)(=O)c1ccc(Oc2ccc(F)cc2)cc1)C(=O)NO` [Example 9h, 2(S)--N-hydroxy-3-methyl-3-(pyrid-2-yl)methylsulfanyl-2-[(4-(4-fluorophenoxy)benzenesulfonyl)amino]butanamide], for which the Ki in assay [1] was determined as 0.057 nM; on human stromelysin (Sln), 0.84 nM; in assay [2] it was 17 nM; in assay [3], 0.031 nM.

Consider `Cc1cc(CSC(C)(C)[C@@H](NS(=O)(=O)c2ccc(Oc3ccc(F)cc3)cc2)C(=O)O)no1` [Example 3l, N-[4-(4-Fluorophenoxy)benzenesulfonyl]--S--[(5-methylisoxazol-3-yl)methyl]-D-penicillamine], for which the results for the Ki (in assay [1]; on human stromelysin (Sln); in assay [3]) were 248 nM, 5100 nM and 35.3 nM, respectively.

Take `CSC(C)(C)[C@@H](NS(=O)(=O)c1ccc(Oc2ccccc2)cc1)C(=O)O` [Example 6a, S-Methyl--N--[4-(phenoxy)benzenesulfonyl]-D-penicillamine]: the Ki in assay [1] came to 661 nM; at human stromelysin (Sln) it was 4850 nM; in assay [3], 351 nM.

With `Cc1ccc(Oc2ccc(S(=O)(=O)N[C@@H](C(=O)O)C(C)(C)SCc3ccccn3)cc2)cc1` [Example 3g, N-[4-(4-Methylphenoxy)benzenesulfonyl]--S--[(pyrid-2-yl)methyl]-D-penicillamine], the figures for the Ki (in assay [1]; at human stromelysin (Sln); in assay [3]) were 117 nM, 1310 nM and 10 nM, respectively.

As to `CC(C)(SCC(=O)O)[C@@H](NS(=O)(=O)c1ccc(Oc2ccc(F)cc2)cc1)C(=O)O` [Example 5, S-Carboxymethyl--N--[4-(4-fluorophenoxy)benzenesulfonyl]-D-penicillamine], the results for the Ki (in assay [1]; at human stromelysin (Sln); in assay [3]) were 1620 nM, 27300 nM and 1550 nM, respectively.

For the compound `CC(C)(SCc1ccccc1)[C@@H](NS(=O)(=O)c1ccc(Oc2ccccc2)cc1)C(=O)O` [Example 3m, S-Benzyl--N--[4-phenoxybenzenesulfonyl]-D-penicillamine], the Ki turned out to be 907 nM in assay [1], 1000 nM at human stromelysin (Sln) and 46 nM in assay [3].

For `CC(C)(SCc1ccccn1)[C@@H](NS(=O)(=O)c1ccc(Oc2ccc(F)cc2)cc1)C(=O)O` [Example 3c, N-[4-(4-Fluorophenoxy)benzenesulfonyl]--S--[(pyrid-2-yl)methyl]-D-penicillamine], the Ki in assay [1] worked out at 110 nM; on human stromelysin (Sln), 2550 nM; in assay [3] it was 44 nM.

As for `Cc1cc(CSC(C)(C)[C@@H](NS(=O)(=O)c2ccc(Sc3ccncc3)cc2)C(=O)O)no1` [Example 4c, S--[(5-Methylisoxazol-3-yl)methyl]--N--[4(pyrid-4-yl)sulfanylbenzenesulfonyl]-D-penicillamine], the Ki in assay [1] was 7000 nM; at human stromelysin (Sln), 97000 nM; in assay [3], 890 nM.

Consider `CC(C)(SCC(=O)O)[C@@H](NS(=O)(=O)c1ccc(Oc2ccc(F)cc2)cc1)C(=O)NO` [Example 12, 2(S)--N-hydroxy-3-methyl-3-(carboxymethyl)sulfanyl-2-[(4-(4-fluorophenoxy)benzenesulfonyl)amino]butanamide], for which the results for the Ki (in assay [1]; at human stromelysin (Sln); in assay [3]) were 0.27 nM, 5.7 nM and 0.53 nM, respectively.

Regarding `CC(C)([C@@H](NS(=O)(=O)c1ccc(Oc2ccc(Br)cc2)cc1)C(=O)NO)[S+]([O-])Cc1ccccn1` (mixture of isomers) [Example 11, 2(S), S(R/S)--N-hydroxy-3-methyl-3-(pyrid-2-yl) methylsulfinyl-2-[(4-(4-bromophenoxy)benzenesulfonyl)amino]butanamide], the Ki in assay [1] was 0.028 nM; on human stromelysin (Sln) it was 1 nM; in assay [2] it was 24 nM; in assay [3], 0.049 nM.

As to `CC(C)(SCc1ccncc1)[C@@H](NS(=O)(=O)c1ccc(Oc2ccc(F)cc2)cc1)C(=O)O` [Example 3f, N-[4-(4-Fluorophenoxy)benzenesulfonyl]--S--[(pyrid-4-yl)methyl]-D-penicillamine], the Ki in assay [1] stood at 829 nM; on human stromelysin (Sln), 6300 nM; in assay [3] it was 311 nM.

Take `CC(C)(SCc1ccccn1)[C@@H](NS(=O)(=O)c1ccc(Oc2ccc(-c3ccoc3)cc2)cc1)C(=O)O` [Example 4e, N-[4-(4-(Furan-3-yl)phenoxy)benzenesulfonyl]--S--[(pyrid-2-yl)methyl]-D-penicillamine]: the values for the Ki (in assay [1]; at human stromelysin (Sln); in assay [3]) were 153 nM, 680 nM and 7.1 nM, respectively.

Take `CC(C)(SCc1cccnc1)[C@@H](NS(=O)(=O)c1ccc(Oc2ccc(F)cc2)cc1)C(=O)O` [Example 3e, N-[4-(4-Fluorophenoxy)benzenesulfonyl]--S--[(pyrid-3-yl)methyl]-D-penicillamine]: the Ki in assay [1] worked out at 1100 nM; at human stromelysin (Sln), 6900 nM; in assay [3] it was 517 nM.

For the compound `CSC(C)(C)[C@@H](NS(=O)(=O)c1ccc(Oc2ccc(Cl)cc2)cc1)C(=O)O` [Example 6b, S-Methyl--N--[4-(4-chlorophenoxy)benzenesulfonyl]-D-penicillamine], the figures for the Ki (in assay [1]; on human stromelysin (Sln); in assay [3]) were 696 nM, 17000 nM and 215 nM, respectively.

Consider `CC(C)(SCc1nccn1Cc1ccccc1)[C@@H](NS(=O)(=O)c1ccc(Oc2ccc(Br)cc2)cc1)C(=O)O` [Example 3b, N-[4-(4-Bromophenoxy)benzenesulfonyl]--S--[(1-benzyl-1H-imidazol-2-yl)methyl]-D-penicillamine], for which the figures for the Ki (in assay [1]; on human stromelysin (Sln); in assay [3]) were 108 nM, 558 nM and 1.8 nM, respectively.

`CC(C)(C)[C@@H](NS(=O)(=O)c1ccc(Oc2ccc(Cl)cc2)cc1)C(=O)O` [Example 3p, N-[4-(4-Chlorophenoxy)benzenesulfonyl]-D-tert-leucine]: the Ki worked out at 203 nM in assay [1], 9500 nM on human stromelysin (Sln) and 62 nM in assay [3].

As for `CC(C)(C)[C@@H](NS(=O)(=O)c1ccc(Oc2ccccc2)cc1)C(=O)O` [Example 3r, N-[4-Phenoxybenzenesulfonyl]-D-tert-leucine], the Ki in assay [1] came to 616 nM; at human stromelysin (Sln) it was 12700 nM; in assay [3], 104 nM.

`CC(C)(SCc1ccccc1)[C@@H](NS(=O)(=O)c1ccc(Oc2ccncc2)cc1)C(=O)O` [Example 4a, S-Benzyl--N--[4-(pyrid-4-yl)oxybenzenesulfonyl]-D-penicillamine]: the Ki in assay [1] is 360 nM; on human stromelysin (Sln), 7700 nM; in assay [3], 193 nM.

Consider `CC(C)(C)OC(=O)CSC(C)(C)[C@@H](NS(=O)(=O)c1ccc(Oc2ccc(F)cc2)cc1)C(=O)NO` [Example 9j, 2(S)--N-hydroxy-3-methyl-3-(t-butoxycarbonyl)methylsulfanyl-2-[(4-(4-fluorophenoxy)benzenesulfonyl)amino]butanamide], for which the Ki was 0.091 nM in assay [1], 1.6 nM at human stromelysin (Sln), 33 nM in assay [2] and 0.048 nM in assay [3].
